Columns and labels:
[1] = tested on: choroidal neovascularization in C57BL/6J mice; assay type: in vivo; conditions: 10 μg intravitreal after laser and day 7; assessed day 14; vs vehicle (PBS or DMSO)
Method: Parstatin (1-41), hydrophobic parstatin (1-26) fragment and hydrophilic parstatin (24-41) fragment were used in an in vivo mouse model of choroidal neovascularization. In particular, laser photocoagulation-induced rupture of Bruch's membrane was used to generate choroidal neovascularization as a preclinical disease model for age-related macular degeneration. Pathogen-free C57BL/6J (4-5 week-old) mice were treated in accordance with the Association for Research in Vision and Ophthalmology Statement for the Use of Animals in Ophthalmic and Vision Research and the guidelines of the Animal Care and Use Committee at local University Medical School.
C57BL/6J (4-5 week-old) mice were anesthetized with ketamine hydrochloride (100 mg/kg body weight) and xylazine-(4 mg/Kg body weight) and the pupils were dilated with 1% tropicamide. Laser photocoagulation (75 μm spot size, 0.1 sec duration, 120 mW) was performed in the 9, 12, and 3 o'clock positions of the posterior pole of the retina with the slit lamp delivery system of an Oculight GL diode laser (Index, Mountain View, Calif.) and a handheld cover slip as a contact lens to view the retina. Production of a bubble at the time of laser, which indicates rupture of Bruch's membrane, is an important factor in obtaining CNV. Therefore, only burns in which a bubble was produced were included in the study. Two weeks after rupture of Bruch's membrane, anesthetized mice were perfused with 50 mg/ml fluorescein-labelled-dextran (2×10^6 average molecular weight, Sigma-Aldrich, St. Louis, Mo.). The eyes were then dissected and fixed in 10% Formalin for 3 hours and choroidal flat mounts were examined by fluorescence microscopy. Image-Pro Plus software (Media Cybernetics, Silver Spring, Md.) was used to measure the total area of CNV at each rupture site by personnel blinded as to study treatments and groups.
Intraocular injections of parstatin peptides were performed with a Harvard pump microinjection apparatus and pulled glass micropipets. […] Choroidal neovascularization was assessed 14 days after laser treatment.

[2] = tested on: corneal neovascularization in Sprague-Dawley rats; test: chemical burn-induced corneal neovascularization, image analysis; assay type: in vivo, rat; conditions: 2×50 μg subconjunctival, day 7
From the text: Parstatin (1-41), hydrophobic parstatin (1-26) fragment and hydrophilic parstatin (24-41) fragment were used in an in vivo rat model of corneal neovascularization. In particular, chemical burn-induced corneal trauma was used to generate corneal neovascularization as a preclinical disease model simulating a plethora of corneal diseases associated with abnormal formation of new blood vessels. The cornea is normally an avascular tissue that can be stimulated to undergo pathological neoangiogenesis in response to mechanical or chemical injuries, pterygium, herpetic keratitis, etc. In this model, an inflammatory response is considered an important prerequisite for neovascularization. This model is widely accepted and is one of the most extensively studied models, which provides an in vivo environment to study this complex process with convenient access to the corneal tissue and the highly visible developing vasculature.
Pathogen-free male Sprague-Dawley rats (250-300 gr) were treated in accordance with the Association for Research in Vision and Ophthalmology Statement for the Use of Animals in Ophthalmic and Vision Research and the guidelines of the Animal Care and Use Committee at local University Medical School. […] The corneal neovascularization was assessed using a semiautomatic program, which was developed in MATLAB 7.5. […]

| Sequence | inhibition of choroidal neovascularization [1] [%] | inhibition of corneal neovascularization [2] [%] |
| --- | --- | --- |
| MGPRRLLLVAACFSLCGPLLSARTRA (listed as Homo sapiens) [parstatin (1-26)] | 62 | 50 |
| TRARRPESKATNATLDPR (listed as Homo sapiens) [parstatin (24-41), 24-41 (18 amino acids) of human parstatin, hydrophilic fragment] | 77 | 60 |
